Laboratory results: the supplement of paper PMC11061612

Experiments:
Experiment in all cases: combination Emax (second highest fraction inhibited in the dose matrix, 72 h); higher = more inhibition; extreme values may be limits of the assay
786-0 (Kidney Carcinoma) = test system: 786-0 (Kidney Carcinoma)
Procedure, shortened: (§1)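 After 24 hours at 37°C and 5% CO2 in 1536-well plates, cells in DMEM/F12 or RPMI plus 10% FBS received two-drug dose matrices for 72 hours. Viability came from CellTiter-Glo 2.0 luminescence and was scaled as inhibition, anchored at 0 by vehicle wells and at 1 by blank wells. Combination Emax is taken as the second-highest inhibition in the matrix, and Bliss excess as the observed combination effect less EA + EB − EA·EB, with EA and EB the single-agent effects.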

[1] = test system: JHH-1 (Hepatocellular Carcinoma)
Procedure, shortened: as §1

[2] = test system: OV-90 (Ovarian Carcinoma)
Procedure, shortened: as §1

[3] = test system: Caov-3 (Ovarian Carcinoma)
Procedure, shortened: as §1

[4] = test system: HTC-C3 (Thyroid Gland Carcinoma)
Procedure, shortened: as §1

[5] = test system: NKM-1 (Acute Myeloid Leukemia)
Procedure, shortened: as §1

HuO-3N1 (Osteosarcoma) = test system: HuO-3N1 (Osteosarcoma)
Procedure, shortened: as §1

[6] = test system: RERF-LC-KJ (Lung Adenocarcinoma)
Procedure, shortened: as §1

[7] = test system: AsPC-1 (Pancreatic Carcinoma)
Procedure, shortened: as §1

[8] = test system: RMG-I (Ovarian Carcinoma)
Procedure, shortened: as §1

[9] = test system: LOUCY (T-Lymphoblastic Leukemia)
Procedure, shortened: as §1

[10] = test system: OCI-AML5 (Acute Myeloid Leukemia)
Procedure, shortened: as §1

[11] = test system: PANC-02-03 (Pancreatic Carcinoma)
Procedure, shortened: as §1

[12] = test system: SK-MM-2 (Plasma Cell Myeloma)
Procedure, shortened: as §1

[13] = test system: NCI-H810 (Non-Small Cell Lung Carcinoma)
Procedure, shortened: as §1

[14] = test system: RL95-2 (Endometrial Carcinoma)
Procedure, shortened: as §1

[15] = test system: OVTOKO (Ovarian Carcinoma)
Procedure, shortened: as §1

[16] = test system: KYSE-70 (Esophageal Squamous Cell Carcinoma)
Procedure, shortened: as §1

[17] = test system: NCI-H196 (Small Cell Lung Carcinoma)
Procedure, shortened: as §1

[18] = test system: PC-14 (Lung Adenocarcinoma)
Procedure, shortened: as §1

Structure (SMILES)	combination Emax (786-0 (Kidney Carcinoma))	combination Emax [1]	combination Emax [2]	combination Emax [3]	combination Emax [4]	combination Emax [5]	combination Emax (HuO-3N1 (Osteosarcoma))	combination Emax [6]	combination Emax [7]	combination Emax [8]	combination Emax [9]	combination Emax [10]	combination Emax [11]	combination Emax [12]	combination Emax [13]	combination Emax [14]	combination Emax [15]	combination Emax [16]	combination Emax [17]	combination Emax [18]
CCN(CCO)CCCOc1ccc2c(Nc3cc(CC(=O)Nc4cccc(F)c4)[nH]n3)ncnc2c1 [AZD2811] + O=C(c1cc(Cc2n[nH]c(=O)c3ccccc23)ccc1F)N1CCN(C(=O)C2CC2)CC1 [Olaparib] (first compound max 1 µM, 7x7, partner max 10 µM)	0.149	0.161	0.249	0.82	0.248	0.723	0.178	0.333	0.18	0.231	0.924	0.966	0.307	0.232	0.646	0.73	0.223	0.203	0.12	0.303
CN(CCO)CC[C@H](CSc1ccccc1)Nc1ccc(S(=O)(=O)NC(=O)c2ccc(N3CCC([C@@H](O)c4ccccc4-c4ccc(Cl)cc4)CC3)cc2)cc1S(=O)(=O)C(F)(F)F [AZD4320] + C1CN(CCC1(C(=O)N[C@@H](CCO)C2=CC=C(C=C2)Cl)N)C3=NC=NC4=C3C=CN4 [Capivasertib] (first compound max 1 µM, 7x7, partner max 3 µM)	0.402	0.355	0.717	0.363	0.207	1	0.201	0.293	0.643	0.708	1	1	0.0923	1	0.482	0.533	0.413	0.167	0.175	0.255
CN(CCO)CC[C@H](CSc1ccccc1)Nc1ccc(S(=O)(=O)NC(=O)c2ccc(N3CCC([C@@H](O)c4ccccc4-c4ccc(Cl)cc4)CC3)cc2)cc1S(=O)(=O)C(F)(F)F [AZD4320] + C=CCn1c(=O)c2cnc(Nc3ccc(N4CCN(C)CC4)cc3)nc2n1-c1cccc(C(C)(C)O)n1 [AZD1775] (first compound max 1 µM, partner max 1 µM)	0.715	0.918	0.933	0.979	0.742	1	0.349	0.272	0.728	0.907	1	1	0.585	1	0.954	0.53	0.621	0.67	0.671	0.99
CN(CCO)CC[C@H](CSc1ccccc1)Nc1ccc(S(=O)(=O)NC(=O)c2ccc(N3CCC([C@@H](O)c4ccccc4-c4ccc(Cl)cc4)CC3)cc2)cc1S(=O)(=O)C(F)(F)F [AZD4320] + CCN(CCO)CCCOc1ccc2c(Nc3cc(CC(=O)Nc4cccc(F)c4)[nH]n3)ncnc2c1 [AZD2811] (first compound max 1 µM, 7x7, partner max 1 µM)	0.166	0.82	0.743	0.94	0.347	1	0.152	0.309	0.541	0.728	1	1	0.179	1	0.894	0.92	0.166	0.391	0.055	0.395
CN(CCO)CC[C@H](CSc1ccccc1)Nc1ccc(S(=O)(=O)NC(=O)c2ccc(N3CCC([C@@H](O)c4ccccc4-c4ccc(Cl)cc4)CC3)cc2)cc1S(=O)(=O)C(F)(F)F [AZD4320] + CN(C)CCCOc1ccc(-c2ccc3ncc4c(c3c2)n(C2CCOCC2)c(=O)n4C)cn1 [AZD0156] (first compound max 1 µM, 7x7, partner max 1 µM)	0.0619	0.444	0.5	0.541	0.37	1	0.164	0.267	0.602	0.79	1	1	0.138	1	0.453	0.124	0.25	0.115	0.171	0.17
